Legend:
Assay type in all cases: in vivo
Parameters in all cases: key: 0 is no effect; 10 is complete control
[1] = test system: crabgrass (Digitaria sanguinalis); test: Test B pre-/postemergence
Excerpt: (§1) Seeds of bedstraw (Galium aparine), blackgrass (Alopecurus myosuroides), broadleaf signalgrass (Brachiaria decumbens), cocklebur (Xanthium strumarium), corn (Zea mays), crabgrass (Digitaria sanguinalis), giant foxtail (Setaria faberii), lambsquarters (Chenopodium album), momingglory (Ipomoea hederacea), pigweed (Amaranthus retroflexus), rape (Brassica napus), soybean (Glycine max), sugar beet (Beta vulgaris), velvetleaf (Abutilon theophrasti), wheat (Triticum aestivum), wild oat (Avena fatua) and purple nutsedge (Cyperus rotundus) tubers were planted and treated preemergence with test chemicals formulated in a non-phytotoxic solvent mixture which included a surfactant.
(§2) At the same time, these crop and weed species were also treated with postemergence applications of test chemicals formulated in the same manner. Plants ranged in height from 2 to 18 cm (1- to 4-leaf stage) for postemergence treatments. Plant species in the flood test consisted of rice (Oryza sativa), smallflower flatsedge (Cyperus difformis), duck salad (Heteranthera limosa) and bamyardgrass (Echinochloa crus-galli) grown to the 2-leaf stage for testing. Treated plants and controls were maintained in a greenhouse for twelve to sixteen days, after which all species were compared to controls and visually evaluated. Plant response ratings, summarized in Table B, are based on a scale of 0 to 10 where 0 is no effect and 10 is complete control. A dash (−) response means no test result.

rape (Brassica napus) = test: Test B pre-/postemergence
Excerpt: as §1, §2

[2] = test system: pigweed (Amaranthus retroflexus); test: Test B pre-/postemergence
Excerpt: as §1, §2

[3] = test system: sugar beet (Beta vulgaris); test: Test B pre-/postemergence
Excerpt: as §1, §2

soybean (Glycine max) = test: Test B pre-/postemergence
Excerpt: as §1, §2

[4] = test system: velvetleaf (Abutilon theophrasti); test: Test B pre-/postemergence
Excerpt: as §1, §2

[5] = test system: cocklebur (Xanthium strumarium); test: Test B pre-/postemergence; conditions: for Plant response rating, Cocklebur: Postemergence; for Cocklebur plant response rating: Preemergence
Excerpt: as §1, §2

[6] = test system: broadleaf signalgrass (Brachiaria decumbens); test: Test B pre-/postemergence
Excerpt: as §1, §2

wild oat (Avena fatua) = test: Test B pre-/postemergence
Excerpt: as §1, §2

[7] = test system: giant foxtail (Setaria faberii); test: Test B pre-/postemergence
Excerpt: as §1, §2

[8] = test system: bedstraw (Galium aparine); test: Test B pre-/postemergence
Excerpt: as §1, §2

[9] = test system: purple nutsedge (Cyperus rotundus); test: Test B pre-/postemergence
Excerpt: as §1, §2

[10] = test system: wheat (Triticum aestivum); test: Test B pre-/postemergence
Excerpt: as §1, §2

corn (Zea mays) = test: Test B pre-/postemergence
Excerpt: as §1, §2

[11] = test system: blackgrass (Alopecurus myosuroides); test: Test B pre-/postemergence
Excerpt: as §1, §2

[12] = test system: momingglory (Ipomoea hederacea); test: Test B pre-/postemergence
Excerpt: as §1, §2

[13] = test system: bamyardgrass (Echinochloa crus-galli); test: Test B flood test
Outline: (§3)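 Flood test on plants grown to the 2-leaf stage; treated plants kept in greenhouse twelve to sixteen days, then visually rated against controls on a 0 (no effect) to 10 (complete control) scale.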

[14] = test system: smallflower flatsedge (Cyperus difformis); test: Test B flood test
Outline: as §3

[15] = test system: duck salad (Heteranthera limosa); test: Test B flood test
Outline: as §3

rice (Oryza sativa) = test: Test B flood test
Outline: as §3

[16] = Rate 62 g/ha, Postemergence (flood test)
[17] = Rate 125 g/ha, Postemergence, flood test
[18] = Rate 250 g/ha, Postemergence (flood test species)

With COC(c1cccc(C(F)(F)F)c1)c1nc(-c2ccc(C(F)(F)F)cc2)ncc1C (racemic) [Compound 20] the “Plant response rating, Crabgrass” value ([1]; Rate 62 g/ha, Postemergence) was 2, the “Crabgrass plant response rating” value ([1]; Rate 62 g/ha, Preemergence) was 0 and the “Plant response rating, Crabgrass” value ([1]; Rate 125 g/ha, Postemergence) was 3. The “Crabgrass plant response rating” value ([1]; Rate 125 g/ha, Preemergence) was 1, the “Plant response rating, Crabgrass” value ([1]; Rate 250 g/ha, Postemergence) was 3 and the “Plant response rating, Crabgrass” value ([1]; Rate 250 g/ha, Preemergence) was 2. The “Plant response rating, Rape” value (rape (Brassica napus); Rate 62 g/ha, Postemergence) was 3, the “Rape plant response rating” value (rape (Brassica napus); Rate 62 g/ha, Preemergence) was 0 and the “Plant response rating, Rape” value (rape (Brassica napus); Rate 125 g/ha, Postemergence) was 4. The “Rape plant response rating” value (rape (Brassica napus); Rate 125 g/ha, Preemergence) was 0, the “Plant response rating, Rape” value (rape (Brassica napus); Rate 250 g/ha, Postemergence) was 5 and the “Plant response rating, Rape” value (rape (Brassica napus); Rate 250 g/ha, Preemergence) was 0. The “Plant response rating, Redroot pigweed” value ([2]; Rate 62 g/ha, Postemergence) was 5, the “Redroot pigweed plant response rating” value ([2]; Rate 62 g/ha, Preemergence) was 0 and the “Plant response rating, Redroot pigweed” value ([2]; Rate 125 g/ha, Postemergence) was 7. For the same compound, the “Redroot pigweed plant response rating” value ([2]; Rate 125 g/ha, Preemergence) was 0, the “Plant response rating, Redroot pigweed” value ([2]; Rate 250 g/ha, Postemergence) was 8 and the “Plant response rating, Redroot pigweed” value ([2]; Rate 250 g/ha, Preemergence) was 1. For the same compound, the “Plant response rating, Sugarbeets” value ([3]; Rate 62 g/ha, Postemergence) was 3, the “Sugarbeets plant response rating” value ([3]; Rate 62 g/ha, Preemergence) was 0 and the “Plant response rating, Sugarbeets” value ([3]; Rate 125 g/ha, Postemergence) was 5. For the same compound, the “Sugarbeets plant response rating” value ([3]; Rate 125 g/ha, Preemergence) was 0, the “Plant response rating, Sugarbeets” value ([3]; Rate 250 g/ha, Postemergence) was 7 and the “Plant response rating, Sugarbeets” value ([3]; Rate 250 g/ha, Preemergence) was 2. The “Plant response rating, Soybean” value (soybean (Glycine max); Rate 62 g/ha, Postemergence) was 4, the “Soybean plant response rating” value (soybean (Glycine max); Rate 62 g/ha, Preemergence) was 0 and the “Plant response rating, Soybean” value (soybean (Glycine max); Rate 125 g/ha, Postemergence) was 5. The “Soybean plant response rating” value (soybean (Glycine max); Rate 125 g/ha, Preemergence) was 0, the “Plant response rating, Soybean” value (soybean (Glycine max); Rate 250 g/ha, Postemergence) was 6 and the “Plant response rating, Soybean” value (soybean (Glycine max); Rate 250 g/ha, Preemergence) was 0. The “Plant response rating, Velvetleaf” value ([4]; Rate 62 g/ha, Postemergence) was 4, the “Velvetleaf plant response rating” value ([4]; Rate 62 g/ha, Preemergence) was 0 and the “Plant response rating, Velvetleaf” value ([4]; Rate 125 g/ha, Postemergence) was 6. The “Velvetleaf plant response rating” value ([4]; Rate 125 g/ha, Preemergence) was 0, the “Plant response rating, Velvetleaf” value ([4]; Rate 250 g/ha, Postemergence) was 7 and the “Plant response rating, Velvetleaf” value ([4]; Rate 250 g/ha, Preemergence) was 0. The “Plant response rating, Cocklebur” value ([5]; Rate 62 g/ha) was 4, the “Cocklebur plant response rating” value ([5]; Rate 62 g/ha) was 0 and the “Plant response rating, Cocklebur” value ([5]; Rate 125 g/ha) was 5. For the same compound, the “Cocklebur plant response rating” value ([5]; Rate 125 g/ha) was 0, the “Plant response rating, Cocklebur” value ([5]; Rate 250 g/ha) was 7 and the “Plant response rating, B. signalgrass” value ([6]; Rate 62 g/ha, Postemergence) was 2. The “B. signalgrass plant response rating” value ([6]; Rate 62 g/ha, Preemergence) was 0, the “Plant response rating, B. signalgrass” value ([6]; Rate 125 g/ha, Postemergence) was 2 and the “B. signalgrass plant response rating” value ([6]; Rate 125 g/ha, Preemergence) was 1. For the same compound, the “Plant response rating, B. signalgrass” value ([6]; Rate 250 g/ha, Postemergence) was 3, the “Plant response rating, B. signalgrass” value ([6]; Rate 250 g/ha, Preemergence) was 4 and the “Plant response rating, Wild oats” value (wild oat (Avena fatua); Rate 62 g/ha, Postemergence) was 2. For the same compound, the “Wild oats plant response rating” value (wild oat (Avena fatua); Rate 62 g/ha, Preemergence) was 1, the “Plant response rating, Wild oats” value (wild oat (Avena fatua); Rate 125 g/ha, Postemergence) was 3 and the “Wild oats plant response rating” value (wild oat (Avena fatua); Rate 125 g/ha, Preemergence) was 2. For the same compound, the “Plant response rating, Wild oats” value (wild oat (Avena fatua); Rate 250 g/ha, Postemergence) was 3, the “Plant response rating, Wild oats” value (wild oat (Avena fatua); Rate 250 g/ha, Preemergence) was 3 and the “Plant response rating, Giant foxtail” value ([7]; Rate 62 g/ha, Postemergence) was 2. For the same compound, the “Giant foxtail plant response rating” value ([7]; Rate 62 g/ha, Preemergence) was 0, the “Plant response rating, Giant foxtail” value ([7]; Rate 125 g/ha, Postemergence) was 2 and the “Giant foxtail plant response rating” value ([7]; Rate 125 g/ha, Preemergence) was 0. For the same compound, the “Plant response rating, Giant foxtail” value ([7]; Rate 250 g/ha, Postemergence) was 3, the “Plant response rating, Giant foxtail” value ([7]; Rate 250 g/ha, Preemergence) was 1 and the “Plant response rating, Bedstraw” value ([8]; Rate 62 g/ha, Postemergence) was 4. The “Bedstraw plant response rating” value ([8]; Rate 62 g/ha, Preemergence) was 0, the “Plant response rating, Bedstraw” value ([8]; Rate 125 g/ha, Postemergence) was 4 and the “Bedstraw plant response rating” value ([8]; Rate 125 g/ha, Preemergence) was 0. For the same compound, the “Plant response rating, Bedstraw” value ([8]; Rate 250 g/ha, Postemergence) was 4, the “Plant response rating, Bedstraw” value ([8]; Rate 250 g/ha, Preemergence) was 1 and the “Plant response rating, Nutsedge” value ([9]; Rate 62 g/ha, Postemergence) was 0. For the same compound, the “Nutsedge plant response rating” value ([9]; Rate 62 g/ha, Preemergence) was 0, the “Plant response rating, Nutsedge” value ([9]; Rate 125 g/ha, Postemergence) was 0 and the “Plant response rating, Nutsedge” value ([9]; Rate 250 g/ha, Postemergence) was 0. For the same compound, the “Plant response rating, Nutsedge” value ([9]; Rate 250 g/ha, Preemergence) was 0, the “Plant response rating, Wheat” value ([10]; Rate 62 g/ha, Postemergence) was 2 and the “Wheat plant response rating” value ([10]; Rate 62 g/ha, Preemergence) was 0. The “Plant response rating, Wheat” value ([10]; Rate 125 g/ha, Postemergence) was 3, the “Wheat plant response rating” value ([10]; Rate 125 g/ha, Preemergence) was 0 and the “Plant response rating, Wheat” value ([10]; Rate 250 g/ha, Postemergence) was 3. For the same compound, the “Plant response rating, Wheat” value ([10]; Rate 250 g/ha, Preemergence) was 0, the “Plant response rating, Corn” value (corn (Zea mays); Rate 62 g/ha, Postemergence) was 3 and the “Corn plant response rating” value (corn (Zea mays); Rate 62 g/ha, Preemergence) was 0. The “Plant response rating, Corn” value (corn (Zea mays); Rate 125 g/ha, Postemergence) was 3, the “Corn plant response rating” value (corn (Zea mays); Rate 125 g/ha, Preemergence) was 0 and the “Plant response rating, Corn” value (corn (Zea mays); Rate 250 g/ha, Postemergence) was 3. For the same compound, the “Plant response rating, Corn” value (corn (Zea mays); Rate 250 g/ha, Preemergence) was 0, the “Plant response rating, Blackgrass” value ([11]; Rate 62 g/ha, Postemergence) was 2 and the “Blackgrass plant response rating” value ([11]; Rate 62 g/ha, Preemergence) was 1. For the same compound, the “Plant response rating, Blackgrass” value ([11]; Rate 125 g/ha, Postemergence) was 2, the “Blackgrass plant response rating” value ([11]; Rate 125 g/ha, Preemergence) was 2 and the “Plant response rating, Blackgrass” value ([11]; Rate 250 g/ha, Postemergence) was 3. For the same compound, the “Plant response rating, Blackgrass” value ([11]; Rate 250 g/ha, Preemergence) was 4, the “Plant response rating, Morningglory” value ([12]; Rate 62 g/ha, Postemergence) was 3 and the “Morningglory plant response rating” value ([12]; Rate 62 g/ha, Preemergence) was 0. The “Plant response rating, Morningglory” value ([12]; Rate 125 g/ha, Postemergence) was 4, the “Morningglory plant response rating” value ([12]; Rate 125 g/ha, Preemergence) was 0 and the “Plant response rating, Morningglory” value ([12]; Rate 250 g/ha, Postemergence) was 4. The “Plant response rating, Morningglory” value ([12]; Rate 250 g/ha, Preemergence) was 0, the “Plant response rating, Barnyardgrass” value [13, 16] was 0 and the “Plant response rating, Barnyardgrass” value [13, 17] was 0. For the same compound, the “Plant response rating, Barnyardgrass” value [13, 18] was 0, the “Plant response rating, S. Flatsedge” value [14, 16] was 0 and the “Plant response rating, S. Flatsedge” value [14, 17] was 0. For the same compound, the “Plant response rating, S. Flatsedge” value [14, 18] was 0, the “Plant response rating, Ducksalad” value [15, 16] was 0 and the “Plant response rating, Ducksalad” value [15, 17] was 0. For the same compound, the “Plant response rating, Ducksalad” value [15, 18] was 0, the “Plant response rating, Rice” value (rice (Oryza sativa); [16]) was 0 and the “Plant response rating, Rice” value (rice (Oryza sativa); [17]) was 0. The “Plant response rating, Rice” value (rice (Oryza sativa); [18]) was 0.

From US6525001B1, “Substituted pyrimidine and pyridine herbicides” (Mid-American Commercialization Corporation, priority 1997, dated 2003)
